Results taken from the supplement of paper PMC10307832.

Key:
Assay in all cases: relative viability (nuclei count vs DMSO), 5 days (fraction); higher = more cells survive
NCI-H23 = system: NCI-H23
Summary of the method: (§1)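 Lung cancer cell lines were pin-tool dosed in 1536-well plates on the day after seeding, with either a lone drug or a fixed anchor-drug dose plus five library-drug doses (not always all listed) in √10 steps. Nuclei were counted on 4× images after 5 days. Relative viability is the ratio of treated-well to vehicle-well nuclei counts, with each value a median of duplicate plates.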

HOP-62 = system: HOP-62
Summary of the method: as §1

ABC-1 = system: ABC-1
Summary of the method: as §1

NCI-H1395 = system: NCI-H1395
Summary of the method: as §1

NCI-H2126 = system: NCI-H2126
Summary of the method: as §1

NCI-H1944 = system: NCI-H1944
Summary of the method: as §1

HCC-78 = system: HCC-78
Summary of the method: as §1

NCI-H1993 = system: NCI-H1993
Summary of the method: as §1

HCC-366 = system: HCC-366
Summary of the method: as §1

EMC-BAC-2 = system: EMC-BAC-2
Summary of the method: as §1

LC-2-ad = system: LC-2-ad
Summary of the method: as §1

NCI-H2228 = system: NCI-H2228
Summary of the method: as §1

ChaGo-K-1 = system: ChaGo-K-1
Summary of the method: as §1

HARA = system: HARA
Summary of the method: as §1

HCC-15 = system: HCC-15
Summary of the method: as §1

NCI-H358 = system: NCI-H358
Summary of the method: as §1

NCI-H838 = system: NCI-H838
Summary of the method: as §1

SK-LU-1 = system: SK-LU-1
Summary of the method: as §1

NCI-H2405 = system: NCI-H2405
Summary of the method: as §1

NCI-H2023 = system: NCI-H2023
Summary of the method: as §1

COR-L23 = system: COR-L23
Summary of the method: as §1

NCI-H1793 = system: NCI-H1793
Summary of the method: as §1

COc1cc2nccc(Oc3ccc(NC(=O)Nc4cc(C)on4)c(Cl)c3)c2cc1OC [Tivozanib] + COc1cc2c(Oc3ccc(NC(=O)C4(C(=O)Nc5ccc(F)cc5)CC4)cc3F)ccnc2cc1OCCCN1CCOCC1 [Foretinib] (partner 0.25 µM) showed a relative viability (NCI-H23; first compound 0.005 µM) of 0.907, a relative viability (NCI-H23; first compound 0.01581 µM) of 1.04 and a relative viability (NCI-H23; first compound 0.05 µM) of 1.04. The relative viability (NCI-H23; first compound 0.1581 µM) was 0.942, the relative viability (NCI-H23; first compound 0.5 µM) was 1.1 and the relative viability (HOP-62; first compound 0.005 µM) was 1.18. For the same molecule, the relative viability (HOP-62; first compound 0.01581 µM) was 1.05, the relative viability (HOP-62; first compound 0.05 µM) was 1.12 and the relative viability (HOP-62; first compound 0.1581 µM) was 1.11. For the same molecule, the relative viability (HOP-62; first compound 0.5 µM) was 1.06, the relative viability (ABC-1; first compound 0.005 µM) was 1.01 and the relative viability (ABC-1; first compound 0.01581 µM) was 1.21. It also gave a relative viability (ABC-1; first compound 0.05 µM) of 1, a relative viability (ABC-1; first compound 0.1581 µM) of 1.06 and a relative viability (ABC-1; first compound 0.5 µM) of 1.02. It also gave a relative viability (NCI-H1395; first compound 0.005 µM) of 1.04, a relative viability (NCI-H1395; first compound 0.01581 µM) of 1.01 and a relative viability (NCI-H1395; first compound 0.05 µM) of 1.11. For the same molecule, the relative viability (NCI-H1395; first compound 0.1581 µM) was 0.897, the relative viability (NCI-H1395; first compound 0.5 µM) was 1.03 and the relative viability (NCI-H2126; first compound 0.005 µM) was 1.24. It also gave a relative viability (NCI-H2126; first compound 0.01581 µM) of 1.11, a relative viability (NCI-H2126; first compound 0.05 µM) of 1.18 and a relative viability (NCI-H2126; first compound 0.5 µM) of 1.25. For the same molecule, the relative viability (NCI-H1944; first compound 0.005 µM) was 0.918, the relative viability (NCI-H1944; first compound 0.01581 µM) was 0.854 and the relative viability (NCI-H1944; first compound 0.05 µM) was 0.926. The relative viability (NCI-H1944; first compound 0.1581 µM) was 0.924, the relative viability (NCI-H1944; first compound 0.5 µM) was 0.931 and the relative viability (HCC-78; first compound 0.005 µM) was 0.539. For the same molecule, the relative viability (HCC-78; first compound 0.01581 µM) was 0.543, the relative viability (HCC-78; first compound 0.05 µM) was 0.534 and the relative viability (HCC-78; first compound 0.1581 µM) was 0.556. It also gave a relative viability (HCC-78; first compound 0.5 µM) of 0.546, a relative viability (NCI-H1993; first compound 0.005 µM) of 0.632 and a relative viability (NCI-H1993; first compound 0.01581 µM) of 0.712. The relative viability (NCI-H1993; first compound 0.05 µM) was 0.757, the relative viability (NCI-H1993; first compound 0.1581 µM) was 0.733 and the relative viability (NCI-H1993; first compound 0.5 µM) was 0.722. The relative viability (HCC-366; first compound 0.005 µM) was 0.934, the relative viability (HCC-366; first compound 0.01581 µM) was 0.932 and the relative viability (HCC-366; first compound 0.05 µM) was 0.9. For the same molecule, the relative viability (HCC-366; first compound 0.1581 µM) was 0.969, the relative viability (HCC-366; first compound 0.5 µM) was 0.861 and the relative viability (EMC-BAC-2; first compound 0.005 µM) was 1.03. It also gave a relative viability (EMC-BAC-2; first compound 0.01581 µM) of 0.952, a relative viability (EMC-BAC-2; first compound 0.05 µM) of 1.03 and a relative viability (EMC-BAC-2; first compound 0.1581 µM) of 0.952. The relative viability (EMC-BAC-2; first compound 0.5 µM) was 1.07, the relative viability (LC-2-ad; first compound 0.005 µM) was 0.917 and the relative viability (LC-2-ad; first compound 0.01581 µM) was 1.02. It also gave a relative viability (LC-2-ad; first compound 0.05 µM) of 0.857, a relative viability (LC-2-ad; first compound 0.1581 µM) of 0.972 and a relative viability (LC-2-ad; first compound 0.5 µM) of 0.788. For the same molecule, the relative viability (NCI-H2228; first compound 0.005 µM) was 0.887, the relative viability (NCI-H2228; first compound 0.01581 µM) was 0.985 and the relative viability (NCI-H2228; first compound 0.05 µM) was 1.13. It also gave a relative viability (NCI-H2228; first compound 0.1581 µM) of 0.82, a relative viability (NCI-H2228; first compound 0.5 µM) of 0.928 and a relative viability (ChaGo-K-1; first compound 0.005 µM) of 0.841. The relative viability (ChaGo-K-1; first compound 0.01581 µM) was 0.914, the relative viability (ChaGo-K-1; first compound 0.05 µM) was 0.869 and the relative viability (ChaGo-K-1; first compound 0.1581 µM) was 0.889. The relative viability (ChaGo-K-1; first compound 0.5 µM) was 0.86, the relative viability (HARA; first compound 0.005 µM) was 0.859 and the relative viability (HARA; first compound 0.01581 µM) was 0.855. It also gave a relative viability (HARA; first compound 0.05 µM) of 0.928, a relative viability (HARA; first compound 0.1581 µM) of 0.952 and a relative viability (HARA; first compound 0.5 µM) of 0.905. The relative viability (HCC-15; first compound 0.005 µM) was 0.915, the relative viability (HCC-15; first compound 0.01581 µM) was 0.994 and the relative viability (HCC-15; first compound 0.05 µM) was 0.993. It also gave a relative viability (HCC-15; first compound 0.1581 µM) of 1.03, a relative viability (HCC-15; first compound 0.5 µM) of 0.977 and a relative viability (NCI-H358; first compound 0.005 µM) of 0.571. It also gave a relative viability (NCI-H358; first compound 0.01581 µM) of 0.672, a relative viability (NCI-H358; first compound 0.05 µM) of 0.732 and a relative viability (NCI-H358; first compound 0.1581 µM) of 0.639. For the same molecule, the relative viability (NCI-H358; first compound 0.5 µM) was 0.716, the relative viability (NCI-H838; first compound 0.005 µM) was 1.06 and the relative viability (NCI-H838; first compound 0.01581 µM) was 0.952. For the same molecule, the relative viability (NCI-H838; first compound 0.05 µM) was 1.05, the relative viability (NCI-H838; first compound 0.5 µM) was 1.03 and the relative viability (SK-LU-1; first compound 0.005 µM) was 0.794. For the same molecule, the relative viability (SK-LU-1; first compound 0.01581 µM) was 0.863, the relative viability (SK-LU-1; first compound 0.05 µM) was 0.885 and the relative viability (SK-LU-1; first compound 0.1581 µM) was 0.762. It also gave a relative viability (SK-LU-1; first compound 0.5 µM) of 0.829, a relative viability (NCI-H2405; first compound 0.005 µM) of 1.03 and a relative viability (NCI-H2405; first compound 0.01581 µM) of 1.04. It also gave a relative viability (NCI-H2405; first compound 0.05 µM) of 1.08, a relative viability (NCI-H2405; first compound 0.1581 µM) of 1.07 and a relative viability (NCI-H2405; first compound 0.5 µM) of 0.966. For the same molecule, the relative viability (NCI-H2023; first compound 0.005 µM) was 0.856, the relative viability (NCI-H2023; first compound 0.01581 µM) was 0.703 and the relative viability (NCI-H2023; first compound 0.05 µM) was 0.989. It also gave a relative viability (NCI-H2023; first compound 0.1581 µM) of 0.825, a relative viability (NCI-H2023; first compound 0.5 µM) of 0.697 and a relative viability (COR-L23; first compound 0.005 µM) of 0.929. The relative viability (COR-L23; first compound 0.01581 µM) was 0.943, the relative viability (COR-L23; first compound 0.05 µM) was 1.07 and the relative viability (COR-L23; first compound 0.1581 µM) was 0.976. It also gave a relative viability (COR-L23; first compound 0.5 µM) of 0.787, a relative viability (NCI-H1793; first compound 0.005 µM) of 0.559 and a relative viability (NCI-H1793; first compound 0.01581 µM) of 0.7. For the same molecule, the relative viability (NCI-H1793; first compound 0.05 µM) was 0.685, the relative viability (NCI-H1793; first compound 0.1581 µM) was 0.479 and the relative viability (NCI-H1793; first compound 0.5 µM) was 0.776.
